Reference: patent publication US6649366B2, “Methods and compositions related to modulators of annexin and cartilage homeostasis” (SmithKline Beecham Corporation, priority 1999, dated 2003)
“Also recorded” adds a separate entry of the source.

Key:
annexin V [1] = biological target: T1, annexin V (Homo sapiens, UniProt P08758); conditions: liposomes; cited from earlier work
T1 sequence (P08758 1-320): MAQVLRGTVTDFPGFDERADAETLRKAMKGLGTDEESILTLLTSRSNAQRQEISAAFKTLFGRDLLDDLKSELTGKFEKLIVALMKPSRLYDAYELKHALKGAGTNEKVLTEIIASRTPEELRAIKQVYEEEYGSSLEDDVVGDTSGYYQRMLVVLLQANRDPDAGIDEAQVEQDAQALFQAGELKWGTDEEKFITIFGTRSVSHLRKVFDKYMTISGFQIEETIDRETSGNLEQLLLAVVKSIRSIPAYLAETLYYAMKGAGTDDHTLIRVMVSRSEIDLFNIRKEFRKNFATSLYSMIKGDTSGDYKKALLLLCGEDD

annexin I = biological target: T2, annexin I (Homo sapiens, UniProt P04083); conditions: liposomes; cited from earlier work
T2 sequence (P04083 1-346): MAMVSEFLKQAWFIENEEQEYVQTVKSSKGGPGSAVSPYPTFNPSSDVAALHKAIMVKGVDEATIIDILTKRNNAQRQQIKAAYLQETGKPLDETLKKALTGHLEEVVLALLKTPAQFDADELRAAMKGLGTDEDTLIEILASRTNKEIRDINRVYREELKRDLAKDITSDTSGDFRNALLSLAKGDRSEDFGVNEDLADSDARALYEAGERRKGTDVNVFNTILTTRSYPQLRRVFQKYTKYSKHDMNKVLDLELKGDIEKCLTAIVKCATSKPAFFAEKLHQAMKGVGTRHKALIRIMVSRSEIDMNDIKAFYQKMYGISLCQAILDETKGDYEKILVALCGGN

annexin III = biological target: T3, annexin III (Homo sapiens, UniProt P12429); conditions: liposomes; cited from earlier work
T3 sequence (P12429 1-323): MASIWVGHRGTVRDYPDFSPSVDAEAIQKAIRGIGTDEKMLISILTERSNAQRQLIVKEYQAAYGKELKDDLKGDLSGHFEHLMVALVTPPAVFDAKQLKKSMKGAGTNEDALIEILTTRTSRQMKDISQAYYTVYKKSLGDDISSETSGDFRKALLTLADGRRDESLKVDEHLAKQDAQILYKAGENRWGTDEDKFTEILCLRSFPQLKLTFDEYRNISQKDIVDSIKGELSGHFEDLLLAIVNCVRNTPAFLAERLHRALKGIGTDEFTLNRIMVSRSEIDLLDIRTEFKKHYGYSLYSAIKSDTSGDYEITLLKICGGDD

embryonic avian tibias = test: LPS-induced cartilage degradation in tibia organ cultures; type: cell-based, Chick
Experimental: The purpose of this study was to test the ability of calcium channel blocker BDA to inhibit cartilage degradation in embryonic avian tibias maintained in organ culture in the presence of lipopolysaccharide (LPS). Chick tibiotarsi were removed from 12 day embryos and their tarsal regions removed. These bones were maintained in organ culture as previously described (26-28). Four bones were placed in each well of a 24-well plate and cultured in 1 ml of DMEM supplemented with 50 μg/ml ascorbate and 10 μg/ml LPS (E. coli serotype 0111 :B4, catalog #L-3012, Sigma, St. Louis). The culture medium with fresh supplements was changed every other day. BDA was dissolved in DMSO at a stock concentration of 2 mM. BDA was added to the culture medium on all feeding days and tested at two concentrations, 0.5 and 2 μM. Control cultures received an equivalent concentration of DMSO. The loss of cartilage from the embryonic bones was measured as the release of proteoglycans and collagen (hydroxyproline) into the culture medium. The spent culture medium was collected with each medium change. The proteoglycan content of the culture medium was determined by a dimethyl methylene blue dye-binding assay (25). The hydroxyproline was measured by a colorimetric assay in 96 well plates (29).

OP-1 = test: endogenous OP-1 in IL-1β challenged cartilage explants (western blot); type: cell-based, human
Experimental: Full thickness articular cartilage was dissected from load bearing regions of the femoral condyles of donors with no history of joint disease within 24 hours of death. Samples from men and women (age 50 to 76) were obtained from the Regional Organ Bank of Illinois as described above. After opening the joint, the surface of the cartilage was examined grossly. The appearance of each joint was given a grade based on the Collins scale (30) as modified by Muehleman et al (31).
Tissue explants (3×3 mm) were prepared as described above and were cultured in Dulbecco's modified Eagle's medium/Hams' F12 (1/1) containing 10 ml/L of Insulin Transferrin Selenium A (ITS, Gibco), 25 μg/ml ascorbate, and 50 μg/ml gentamicin. Experimental cultures contained either recombinant human IL-1β (Genzyme), BDA compound in DMSO, or a combination of IL-1β and BDA. ITS containing medium was used to reduce or eliminate serum-contained growth factors that could mask the released OP-1 or OP-1 degradation products and create nonspecific binding of the antibodies. To reach a steady state, cartilage explants were cultured in the absence of IL-1β or BDA for 4 days (or 96 hours) followed by two days (or 48 hours) of culture with IL-1β, BDA or both IL-1β and BDA. DMSO was added to the media control groups to account for a possible effect of DMSO.
Articular cartilage explants were briefly washed with 0.9% saline, homogenized and extracted in 1 M guanidine hydrochloride in the presence of proteinase inhibitors (0.1 M ε-aminocaproic acid, 0.05 M sodium acetate, 0.005 M EDTA, 0.005 M benzamidine chloride, 0.01 M N-ethylmaleimide, 0.0005 M phenymethanesulfonyl fluoride) at pH 7.4. Samples were extracted for 3 h in the refrigerator, and the extracts, together with the media, were dialyzed against water for 48 hours at 2-8° C., lyophilized and solubilized in sample buffer (0.01 M Tris HCl, pH 6.5, 1% sodium dodecyl sulfate (SDS), 10% glycerol, 0.016% bromphenol blue, 8 M urea, 0.2 M sodium chloride with (for the reduced conditions) or without (for non-reduced conditions) dithioerythritol added (DTT), pH 6.8). Cartilage extracts and media were analyzed by western blotting. All samples were normalized to the protein concentration. Protein concentrations was determined by a colorimetric assay, using BSA as a standard (Pierce, Rockford, Ill.).
Aliquots of samples (30 μg of protein per lane) were analyzed by electrophoresis and immunoblotting. Samples were loaded onto a 12% SDS-polyacrylamide gel (PAGE) in a buffer containing 0.2 M glycine, 25 mM Tris and 3.5 mM SDS. Proteins were transferred from SDS-PAGE gels onto nitrocellulose transfer membranes overnight at 20 V, 4-8° C. in a buffer containing 12 mM Tris (pH 7.4), 6 mM Na acetate, and 0.3 mM EDTA at pH 7.4. Immunoblot analyses was done using OP-1 antibodies. […]

annexin V [2] = biological target: T1, annexin V; test: calcium ion flux assay in artificial vesicles containing annexin V (Calcium Green fluorescence); type: biochemical; conditions: 180 ug/ml Annexin V, 100 ug/ml CII Peptide where present, 2 hours
Experimental: Artifical vesicles containing annexin were prepared according to methods known in the art. Specifically, vesicles were prepared by drying down lipids (Avanti Polar Lipids) with nitrogen overlay. Lipids were washed once in ether and further dried under vacuum overnight. Lipids were then sonicated on ice in NMDG Buffer (150 mM N Methyl D Glucamine, and 10 mM Hepes, adjusted to ph 7.4 with HCl, then diluted to 100 mOSM with water) containing 300μM Calcium Green dye (Molecular Probes). Extravesicular dye was removed by Biobead extraction for 20 minutes.
Vesicles were diluted 1:100 in NMDG Buffer, mixed with Annexin V with or without collagen fragments (CII peptide), and incubated for 2 hours. Ca^++ fluxes were measured according to Kaneko et al.. Fluorescence was measured in a 96 well plate using the Flipr plate reader.

For `CN1C(=O)CN=C(c2ccccc2)c2ccccc21` [BDA 250, 1,3-dihydro-1-methyl-5-phenyl-2H-1,4-benzodiazepine-2-one], the “calcium fluxes induced by annexin V” value (annexin V [1]) is listed as “no effect”, the “calcium fluxes induced by annexin I” value (annexin I) is listed as “inhibited” and the “calcium fluxes induced by annexin III” value (annexin III) is listed as “inhibited”.
For `CN1C(=O)C(NC(=O)C(N)Cc2c[nH]c3ccccc23)C=C(c2ccccc2)c2ccccc21` (centres unmarked) [BDA], the “LPS induced proteoglycan release to the culture medium” value (shortened to “LPS induced proteoglycan release”) (embryonic avian tibias; 0.5 μM, compared to DMSO carrier control) was “intermediate loss; also recorded: intermediate amount”, the “LPS induced collagen (hydroxyproline) release” value (from here on “LPS induced collagen”) (embryonic avian tibias; 0.5 μM, feeding day 15) was “intermediate degree of collagen release” and the “LPS induced proteoglycan release” value (embryonic avian tibias; 2 μM) was “least release”. For the same molecule, the “LPS induced collagen” value (embryonic avian tibias; 2 μM, feeding day 15) was “least collagen loss”, the “LPS induced cartilage loss (release of hydroxyproline or proteoglycan)” value (embryonic avian tibias; 0.5 and 2 μM, dose dependence) was “dose-dependent inhibition” and the “LPS induced collagen” value (embryonic avian tibias; 0.5 and 2 μM, dose dependence) was “dose-dependent inhibition”. For the same molecule, the “LPS induced proteoglycan release” value (embryonic avian tibias; 0.5 and 2 μM, dose dependence) was “dose-dependent inhibition”, the “size of the bone and cartilage at the end of the experiments” value (embryonic avian tibias; LPS cultures) was “increased size of the bone and cartilage” and the “release of pro-OP-1 domain” value (OP-1; culture media) was “enhanced the release of pro-OP-1 domain”. The “release of pro-OP-1 into culture media” value (OP-1; day 2 of culture) was “dramatic release of pro-OP-1”, the “content of endogenous OP-1 in cartilage” value (OP-1; human cartilage explants, IL-1 culture, 48 hours) was “increase in the content of endogenous OP-1; also recorded: increase in the content of endogenous anabolic factor” and the “processing of endogenous OP-1 from pro- into mature form” value (OP-1; human cartilage under catabolic conditions) was “processing of cartilage endogenous OP-1 from pro- into mature form”.
With “Annexin V: calcium and phospholipid binding protein mixed with vesicles” the “Fluorescence (Calcium Signal)” value (annexin V [2]; Lipid Ratio 65% PS/12.5% PC/12.5% PE/5% Chol) was 29023 and the “Fluorescence (Calcium Signal)” value (annexin V [2]; Lipid Ratio 70% PS/12.5% PC/12.5% PE) was 46454.
